Measurements reported in patent publication US20220169628A1 (University of Florida Research Foundation, Incorporated, priority 2019, published 2022).
Where two headings read alike, the source gives them in different places.

What was measured:
RS4;11 cells = experiment: Cell viability assay, MTS, 48 h, RS4;11; type: cell-based; conditions: 48 hours, read-out: IC50 (48 hours) RS4;11
Experimental: (§1) Acute lymphoblastic leukemia cells (MOLT-4 and RS4; 11) or small cell lung cancer (NCI-H146 or simply H146) were incubated with increasing concentrations of Bcl-xL degraders for 48 h. Cell viability was measured by tetrazolium-based MTS assay.

MOLT-4 cells = experiment: Cell viability assay, MTS, 48 h, MOLT-4; type: cell-based; conditions: 48 hours, read-out: IC50 (48 hours) MOLT-4
Experimental: as §1

Cc1ncsc1-c1ccc([C@H](C)NC(=O)[C@@H]2C[C@@H](O)CN2C(=O)[C@@H](NC(=O)CC2CCC(CC(=O)N3CCN(CC4(C)CCC(c5ccc(Cl)cc5)=C(CN5CCN(c6ccc(C(=O)NS(=O)(=O)c7ccc(N[C@H](CCN8CCOCC8)CSc8ccccc8)c(S(=O)(=O)C(F)(F)F)c7)cc6)CC5)C4)CC3)CC2)C(C)(C)C)cc1 (some centres unmarked) [degrader #40]
IC50 (RS4;11 cells; Homo sapiens, RS4-11, 48 h): < 50 nM
IC50 (MOLT-4 cells; Homo sapiens, MOLT-4, 48 h): < 50 nM

Cc1ncsc1-c1ccc([C@H](C)NC(=O)[C@@H]2C[C@@H](O)CN2C(=O)[C@@H](NC(=O)CCCCCCC(=O)N2CCN(C[C@@]3(C)CCC(c4ccc(Cl)cc4)=C(CN4CCN(c5ccc(C(=O)NS(=O)(=O)c6ccc(N[C@H](CCN7CCOCC7)CSc7ccccc7)c(S(=O)(=O)C(F)(F)F)c6)cc5)CC4)C3)CC2)C(C)(C)C)cc1 [degrader #43, (2S,4R)-1-((S)-2-(8-(4-(((S)-4′-chloro-4-methyl-6-((4-(4-(((4-(((R)-4-morpholino-1-(phenylthio)butan-2-yl)amino)-3-((trifluoromethyl)sulfonyl)phenyl)sulfonyl)carbamoyl)phenyl)piperazin-1-yl)methyl)-2,3,4,5-tetrahydro-[1,1′-biphenyl]-4-yl)methyl)piperazin-1-yl)-8-oxooctanamido)-3,3-dimethylbutanoyl)-4-hydroxy-N—((S)-1-(4-(4-methylthiazol-5-yl)phenyl)ethyl)pyrrolidine-2-carboxamide]
IC50 (RS4;11 cells; Homo sapiens, RS4-11, 48 h): 150 to 500 nM
IC50 (MOLT-4 cells; Homo sapiens, MOLT-4, 48 h): 50 to 150 nM

Cc1ncsc1-c1ccc([C@H](C)NC(=O)[C@@H]2C[C@@H](O)CN2C(=O)[C@@H](NC(=O)CCCCCCC(=O)N2CCN(C[C@]3(C)CCC(c4ccc(Cl)cc4)=C(CN4CCN(c5ccc(C(=O)NS(=O)(=O)c6ccc(N[C@H](CCN7CCOCC7)CSc7ccccc7)c(S(=O)(=O)C(F)(F)F)c6)cc5)CC4)C3)CC2)C(C)(C)C)cc1 [degrader #44, (2S,4R)-1-((S)-2-(8-(4-(((R)-4′-chloro-4-methyl-6-((4-(4-(((4-(((R)-4-morpholino-1-(phenylthio)butan-2-yl)amino)-3-((trifluoromethyl)sulfonyl)phenyl)sulfonyl)carbamoyl)phenyl)piperazin-1-yl)methyl)-2,3,4,5-tetrahydro-[1,1′-biphenyl]-4-yl)methyl)piperazin-1-yl)-8-oxooctanamido)-3,3-dimethylbutanoyl)-4-hydroxy-N—((S)-1-(4-(4-methylthiazol-5-yl)phenyl)ethyl)pyrrolidine-2-carboxamide]
IC50 (RS4;11 cells; Homo sapiens, RS4-11, 48 h): < 50 nM
IC50 (MOLT-4 cells; Homo sapiens, MOLT-4, 48 h): < 50 nM

Cc1ncsc1-c1ccc([C@H](C)NC(=O)[C@@H]2C[C@@H](O)CN2C(=O)[C@@H](NC(=O)CCCCCCC(=O)N2C[C@@H]3C[C@H]2CN3CC2(C)CCC(c3ccc(Cl)cc3)=C(CN3CCN(c4ccc(C(=O)NS(=O)(=O)c5ccc(N[C@H](CCN6CCOCC6)CSc6ccccc6)c(S(=O)(=O)C(F)(F)F)c5)cc4)CC3)C2)C(C)(C)C)cc1 (some centres unmarked) [degrader #45]
IC50 (RS4;11 cells; Homo sapiens, RS4-11, 48 h): < 50 nM
IC50 (MOLT-4 cells; Homo sapiens, MOLT-4, 48 h): 50 to 150 nM

Cc1ncsc1-c1ccc([C@H](C)NC(=O)[C@@H]2C[C@@H](O)CN2C(=O)[C@@H](NC(=O)CCCCCC(=O)N[C@H]2CCCN(CC3(C)CCC(c4ccc(Cl)cc4)=C(CN4CCN(c5ccc(C(=O)NS(=O)(=O)c6ccc(N[C@H](CCN7CCOCC7)CSc7ccccc7)c(S(=O)(=O)C(F)(F)F)c6)cc5)CC4)C3)C2)C(C)(C)C)cc1 (stereo partly drawn) [degrader #46, N1-((3S)-1-((4′-chloro-4-methyl-6-((4-(4-(((4-(((R)-4-morpholino-1-(phenylthio)butan-2-yl)amino)-3-((trifluoromethyl)sulfonyl)phenyl)sulfonyl)carbamoyl)phenyl)piperazin-1-yl)methyl)-2,3,4,5-tetrahydro-[1,1′-biphenyl]-4-yl)methyl)piperidin-3-yl)-N7-((S)-1-((2S,4R)-4-hydroxy-2-(((S)-1-(4-(4-methylthiazol-5-yl)phenyl)ethyl)carbamoyl)pyrrolidin-1-yl)-3,3-dimethyl-1-oxobutan-2-yl)heptanediamide]
IC50 (RS4;11 cells; Homo sapiens, RS4-11, 48 h): 50 to 150 nM
IC50 (MOLT-4 cells; Homo sapiens, MOLT-4, 48 h): 150 to 500 nM

Cc1ncsc1-c1ccc([C@H](C)NC(=O)[C@@H]2C[C@@H](O)CN2C(=O)[C@@H](NC(=O)CCCCCCC(=O)N[C@H]2CCCN(CC3(C)CCC(c4ccc(Cl)cc4)=C(CN4CCN(c5ccc(C(=O)NS(=O)(=O)c6ccc(N[C@H](CCN7CCOCC7)CSc7ccccc7)c(S(=O)(=O)C(F)(F)F)c6)cc5)CC4)C3)C2)C(C)(C)C)cc1 (stereo partly drawn) [degrader #47, N1-((3S)-1-((4′-chloro-4-methyl-6-((4-(4-(((4-(((R)-4-morpholino-1-(phenylthio)butan-2-yl)amino)-3-((trifluoromethyl)sulfonyl)phenyl)sulfonyl)carbamoyl)phenyl)piperazin-1-yl)methyl)-2,3,4,5-tetrahydro-[1,1′-biphenyl]-4-yl)methyl)piperidin-3-yl)-N8-((S)-1-((2S,4R)-4-hydroxy-2-(((S)-1-(4-(4-methylthiazol-5-yl)phenyl)ethyl)carbamoyl)pyrrolidin-1-yl)-3,3-dimethyl-1-oxobutan-2-yl)octanediamide]
IC50 (RS4;11 cells; Homo sapiens, RS4-11, 48 h): 50 to 150 nM
IC50 (MOLT-4 cells; Homo sapiens, MOLT-4, 48 h): 50 to 150 nM

Cc1ncsc1-c1ccc([C@H](C)NC(=O)[C@@H]2C[C@@H](O)CN2C(=O)[C@@H](NC(=O)CCCCCCCC(=O)N[C@H]2CCCN(CC3(C)CCC(c4ccc(Cl)cc4)=C(CN4CCN(c5ccc(C(=O)NS(=O)(=O)c6ccc(N[C@H](CCN7CCOCC7)CSc7ccccc7)c(S(=O)(=O)C(F)(F)F)c6)cc5)CC4)C3)C2)C(C)(C)C)cc1 (stereo partly drawn) [degrader #48, N1-((3S)-1-((4′-chloro-4-methyl-6-((4-(4-(((4-(((R)-4-morpholino-1-(phenylthio)butan-2-yl)amino)-3-((trifluoromethyl)sulfonyl)phenyl)sulfonyl)carbamoyl)phenyl)piperazin-1-yl)methyl)-2,3,4,5-tetrahydro-[1,1′-biphenyl]-4-yl)methyl)piperidin-3-yl)-N9-((S)-1-((2S,4R)-4-hydroxy-2-(((S)-1-(4-(4-methylthiazol-5-yl)phenyl)ethyl)carbamoyl)pyrrolidin-1-yl)-3,3-dimethyl-1-oxobutan-2-yl)nonanediamide]
IC50 (RS4;11 cells; Homo sapiens, RS4-11, 48 h): < 50 nM
IC50 (MOLT-4 cells; Homo sapiens, MOLT-4, 48 h): 50 to 150 nM

(2S,4R)-1-((S)-2-(4-(4-(4-chlorophenyl)-5-((4-(4-(((4-(((R)-4-morpholino-1-(phenylthio)butan-2-yl)amino)-3-((trifluoromethyl)sulfonyl)phenyl)sulfonyl)carbamoyl)phenyl)piperazin-1-yl)methyl)-3,6-dihydropyridin-1(2H)-yl)-4-oxobutanamido)-3,3-dimethylbutanoyl)-4-hydroxy-N—((S)-1-(4-(4-methylthiazol-5-yl)phenyl)ethyl)pyrrolidine-2-carboxamide [Example 1]
IC50 (RS4;11 cells): 150 to 500 nM
IC50 (MOLT-4 cells): 150 to 500 nM

(2S,4R)-1-((S)-2-(7-(4-(4-chlorophenyl)-5-((4-(4-(((4-(((R)-4-morpholino-1-(phenylthio)butan-2-yl)amino)-3-((trifluoromethyl)sulfonyl)phenyl)sulfonyl)carbamoyl)phenyl)piperazin-1-yl)methyl)-3,6-dihydropyridin-1(2H)-yl)-7-oxoheptanamido)-3,3-dimethylbutanoyl)-4-hydroxy-N—((S)-1-(4-(4-methylthiazol-5-yl)phenyl)ethyl)pyrrolidine-2-carboxamide [Example 2]
IC50 (RS4;11 cells): 150 to 500 nM
IC50 (MOLT-4 cells): 150 to 500 nM

(2S,4R)-1-((S)-2-(8-(4-(4-chlorophenyl)-5-((4-(4-(((4-(((R)-4-morpholino-1-(phenylthio)butan-2-yl)amino)-3-((trifluoromethyl)sulfonyl)phenyl)sulfonyl)carbamoyl)phenyl)piperazin-1-yl)methyl)-3,6-dihydropyridin-1(2H)-yl)-8-oxooctanamido)-3,3-dimethylbutanoyl)-4-hydroxy-N—((S)-1-(4-(4-methylthiazol-5-yl)phenyl)ethyl)pyrrolidine-2-carboxamide [Example 3]
IC50 (RS4;11 cells): 50 to 150 nM
IC50 (MOLT-4 cells): 150 to 500 nM

(2S,4R)-1-((S)-2-(9-(4-(4-chlorophenyl)-5-((4-(4-(((4-(((R)-4-morpholino-1-(phenylthio)butan-2-yl)amino)-3-((trifluoromethyl)sulfonyl)phenyl)sulfonyl)carbamoyl)phenyl)piperazin-1-yl)methyl)-3,6-dihydropyridin-1(2H)-yl)-9-oxononanamido)-3,3-dimethylbutanoyl)-4-hydroxy-N—((S)-1-(4-(4-methylthiazol-5-yl)phenyl)ethyl)pyrrolidine-2-carboxamide [Example 4]
IC50 (RS4;11 cells): < 50 nM
IC50 (MOLT-4 cells): 50 to 150 nM

(2S,4R)-1-((S)-2-(10-(4-(4-chlorophenyl)-5-((4-(4-(((4-(((R)-4-morpholino-1-(phenylthio)butan-2-yl)amino)-3-((trifluoromethyl)sulfonyl)phenyl)sulfonyl)carbamoyl)phenyl)piperazin-1-yl)methyl)-3,6-dihydropyridin-1(2H)-yl)-10-oxodecanamido)-3,3-dimethylbutanoyl)-4-hydroxy-N—((S)-1-(4-(4-methylthiazol-5-yl)phenyl)ethyl)pyrrolidine-2-carboxamide [Example 5]
IC50 (RS4;11 cells): < 50 nM
IC50 (MOLT-4 cells): < 50 nM

(2S,4R)-1-((S)-2-(11-(4-(4-chlorophenyl)-5-((4-(4-(((4-(((R)-4-morpholino-1-(phenylthio)butan-2-yl)amino)-3-((trifluoromethyl)sulfonyl)phenyl)sulfonyl)carbamoyl)phenyl)piperazin-1-yl)methyl)-3,6-dihydropyridin-1(2H)-yl)-11-oxoundecanamido)-3,3-dimethylbutanoyl)-4-hydroxy-N—((S)-1-(4-(4-methylthiazol-5-yl)phenyl)ethyl)pyrrolidine-2-carboxamide [Example 6]
IC50 (RS4;11 cells): < 50 nM
IC50 (MOLT-4 cells): 50 to 150 nM
